Experimental data taken from the NIST ThermoML archive (doi:10.1021/je0340755).

Assay: xn = mol fraction of the nth substance listed
Details: 101.3 kPa, Liquid; for viscosity: Capillary tube (Ostwald / Ubbelohde) method

OCCCCO [1,4-butanediol] + O
Details | mass density [kg/m3] | speed of sound [m/s] | viscosity [mPa·s]
298.15 K, x2 = 0.055 | 1013.64 | 1609 | 68.26
298.15 K, x2 = 0.1534 | 1015.1 | 1623.6 | 59.73
298.15 K, x2 = 0.2472 | 1016.59 | 1637.5 | 51.48
298.15 K, x2 = 0.3542 | 1018.46 | 1658.6 | 42.26
298.15 K, x2 = 0.4531 | 1020.08 | 1678.2 | 33.95
298.15 K, x2 = 0.498 | 1020.71 | 1686 | 30.26
298.15 K, x2 = 0.5578 | 1021.37 | 1695.3 | 25.51
298.15 K, x2 = 0.6513 | 1021.78 | 1707.7 | 18.65
298.15 K, x2 = 0.7496 | 1020.65 | 1715.9 | 12.57
298.15 K, x2 = 0.8475 | 1016.21 | 1702.6 | 7.83
298.15 K, x2 = 0.9081 | 1010.66 | 1663.1 | 5.31
298.15 K, x2 = 0.9152 | 1009.83 | 1655.8 | 5.014
298.15 K, x2 = 0.9253 | 1008.58 | 1644.1 | 4.588
298.15 K, x2 = 0.9355 | 1007.24 | 1630.7 | 4.148
298.15 K, x2 = 0.9543 | 1004.56 | 1601.1 | 3.3
298.15 K, x2 = 0.955 | 1004.46 | 1599.8 | 3.267
298.15 K, x2 = 0.9597 | 1003.74 | 1591.3 | 3.045
298.15 K, x2 = 0.9699 | 1002.14 | 1571.1 | 2.544
298.15 K, x2 = 0.9804 | 1000.42 | 1547.9 | 2.001
298.15 K, x2 = 0.9901 | 998.77 | 1523.9 | 1.468
298.15 K, x2 = 0.9924 | 998.37 | 1517.8 | 1.337
298.15 K, x2 = 0.9955 | 997.83 | 1509.5 | 1.158
308.15 K, x2 = 0.055 | 1007.37 | 1591 | 42.31
308.15 K, x2 = 0.1534 | 1008.7 | 1604.6 | 37.48
308.15 K, x2 = 0.2472 | 1010.06 | 1617.7 | 32.83
308.15 K, x2 = 0.3542 | 1011.78 | 1637.1 | 27.6
308.15 K, x2 = 0.4531 | 1013.29 | 1655.1 | 22.83
308.15 K, x2 = 0.498 | 1013.88 | 1662.5 | 20.69
308.15 K, x2 = 0.5578 | 1014.52 | 1671 | 17.9
308.15 K, x2 = 0.6513 | 1014.99 | 1684.1 | 13.72
308.15 K, x2 = 0.7496 | 1014.15 | 1693 | 9.702
308.15 K, x2 = 0.8475 | 1010.43 | 1685.5 | 6.132
308.15 K, x2 = 0.9081 | 1005.69 | 1655 | 4.059
308.15 K, x2 = 0.9152 | 1004.98 | 1648.7 | 3.816
308.15 K, x2 = 0.9253 | 1003.91 | 1639.7 | 3.469
308.15 K, x2 = 0.9355 | 1002.76 | 1628.5 | 3.115
308.15 K, x2 = 0.9543 | 1000.47 | 1604.2 | 2.45
308.15 K, x2 = 0.955 | 1000.37 | 1603 | 2.425
308.15 K, x2 = 0.9597 | 999.76 | 1595.9 | 2.255
308.15 K, x2 = 0.9699 | 998.39 | 1579.2 | 1.881
308.15 K, x2 = 0.9804 | 996.91 | 1560.2 | 1.487
308.15 K, x2 = 0.9901 | 995.5 | 1540.2 | 1.112
308.15 K, x2 = 0.9924 | 995.16 | 1535.5 | 1.022
308.15 K, x2 = 0.9955 | 994.7 | 1528.5 | 0.899
318.15 K, x2 = 0.055 | 1001.62 | 1574.6 | 27.43
318.15 K, x2 = 0.1534 | 1002.81 | 1586.7 | 24.34
318.15 K, x2 = 0.2472 | 1004.04 | 1598.8 | 21.39
318.15 K, x2 = 0.3542 | 1005.59 | 1615.4 | 18.04
318.15 K, x2 = 0.4531 | 1006.95 | 1632.8 | 15
318.15 K, x2 = 0.498 | 1007.49 | 1640 | 13.63
318.15 K, x2 = 0.5578 | 1008.07 | 1648.7 | 11.84
318.15 K, x2 = 0.6513 | 1008.53 | 1661.1 | 9.148
318.15 K, x2 = 0.7496 | 1007.83 | 1671.4 | 6.533
318.15 K, x2 = 0.8475 | 1004.59 | 1669 | 4.179
318.15 K, x2 = 0.9081 | 1000.44 | 1645 | 2.8
318.15 K, x2 = 0.9152 | 999.82 | 1640.3 | 2.639
318.15 K, x2 = 0.9253 | 998.88 | 1633.3 | 2.408
318.15 K, x2 = 0.9355 | 997.88 | 1624.2 | 2.173
318.15 K, x2 = 0.9543 | 995.86 | 1604.9 | 1.732
318.15 K, x2 = 0.955 | 995.78 | 1603.8 | 1.716
318.15 K, x2 = 0.9597 | 995.24 | 1598.2 | 1.604
318.15 K, x2 = 0.9699 | 994.03 | 1584.8 | 1.357
318.15 K, x2 = 0.9804 | 992.74 | 1568.2 | 1.098
318.15 K, x2 = 0.9901 | 991.5 | 1552.7 | 0.853
318.15 K, x2 = 0.9924 | 991.2 | 1548.3 | 0.794
318.15 K, x2 = 0.9955 | 990.8 | 1542.8 | 0.714
328.15 K, x2 = 0.055 | 994.94 | 1554.9 | 18.38
328.15 K, x2 = 0.1534 | 996.05 | 1564.8 | 16.32
328.15 K, x2 = 0.2472 | 997.2 | 1575.6 | 14.35
328.15 K, x2 = 0.3542 | 998.64 | 1590.3 | 12.12
328.15 K, x2 = 0.4531 | 999.93 | 1605 | 10.08
328.15 K, x2 = 0.498 | 1000.44 | 1610.8 | 9.167
328.15 K, x2 = 0.5578 | 1001.01 | 1618.6 | 7.972
328.15 K, x2 = 0.6513 | 1001.51 | 1631.1 | 6.178
328.15 K, x2 = 0.7496 | 1000.99 | 1641.4 | 4.438
328.15 K, x2 = 0.8475 | 998.24 | 1642.3 | 2.877
328.15 K, x2 = 0.9081 | 994.62 | 1626.3 | 1.965
328.15 K, x2 = 0.9152 | 994.08 | 1623.2 | 1.858
328.15 K, x2 = 0.9253 | 993.26 | 1618 | 1.705
328.15 K, x2 = 0.9355 | 992.38 | 1611.8 | 1.549
328.15 K, x2 = 0.9543 | 990.62 | 1597.3 | 1.257
328.15 K, x2 = 0.955 | 990.55 | 1596.3 | 1.246
328.15 K, x2 = 0.9597 | 990.08 | 1592.2 | 1.172
328.15 K, x2 = 0.9699 | 989.02 | 1581.9 | 1.009
328.15 K, x2 = 0.9804 | 987.89 | 1569.6 | 0.837
328.15 K, x2 = 0.9901 | 986.81 | 1558.3 | 0.674
328.15 K, x2 = 0.9924 | 986.55 | 1555.3 | 0.635
328.15 K, x2 = 0.9955 | 986.2 | 1550.2 | 0.581
338.15 K, x2 = 0.055 | 988.66 | 1531.3 | 12.72
338.15 K, x2 = 0.1534 | 989.67 | 1540.8 | 11.28
338.15 K, x2 = 0.2472 | 990.72 | 1549.4 | 9.897
338.15 K, x2 = 0.3542 | 992.05 | 1562.2 | 8.335
338.15 K, x2 = 0.4531 | 993.23 | 1575.1 | 6.914
338.15 K, x2 = 0.498 | 993.7 | 1580.7 | 6.279
338.15 K, x2 = 0.5578 | 994.23 | 1588.5 | 5.449
338.15 K, x2 = 0.6513 | 994.7 | 1599 | 4.213
338.15 K, x2 = 0.7496 | 994.27 | 1611.3 | 3.033
338.15 K, x2 = 0.8475 | 991.81 | 1615.6 | 2
338.15 K, x2 = 0.9081 | 988.57 | 1606.6 | 1.404
338.15 K, x2 = 0.9152 | 988.08 | 1605.1 | 1.335
338.15 K, x2 = 0.9253 | 987.35 | 1601.7 | 1.235
338.15 K, x2 = 0.9355 | 986.56 | 1597.4 | 1.133
338.15 K, x2 = 0.9543 | 984.97 | 1587.8 | 0.941
338.15 K, x2 = 0.955 | 984.91 | 1586.8 | 0.934
338.15 K, x2 = 0.9597 | 984.49 | 1584.2 | 0.885
338.15 K, x2 = 0.9699 | 983.54 | 1577.1 | 0.776
338.15 K, x2 = 0.9804 | 982.52 | 1569 | 0.662
338.15 K, x2 = 0.9901 | 981.56 | 1560 | 0.553
338.15 K, x2 = 0.9924 | 981.32 | 1558.2 | 0.527
338.15 K, x2 = 0.9955 | 981.01 | 1554.5 | 0.491
